For this assay, the system named is CD2F1 mice, L1210 leukemia ip, survival T/C. Put plainly: NCI In Vivo Anticancer Drug Screen. Data for tumor model L1210 Leukemia (intraperitoneal) in CD2F1 (CDF1) mice. Particulars: higher = longer survival. In short, it runs like this: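 Each value reflects a quotient of treated over vehicle control outcomes in mice with a transplanted tumor.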
The mark [1] stands for this setting: endpoint: mean survival time, dose: 100.0 mg/kg/injection, schedule: Q04DX003 (ip), vehicle: saline with Tween-80.
[2] abbreviates: endpoint: mean survival time, dose: 200.0 mg/kg/injection, schedule: Q04DX003 (ip), vehicle: saline with Tween-80.
[3] abbreviates: endpoint: mean survival time, dose: 400.0 mg/kg/injection, schedule: Q04DX003 (ip), vehicle: saline with Tween-80.
Where [4] appears, read: endpoint: mean survival time, dose: 100.0 mg/kg/injection, schedule: Q01DX009 (ip), vehicle: saline with Tween-80.

Where “and” joins values, the source holds several entries; their conditions need not be identical. Equal values may be shown once. Toxic doses and inconclusive results are not listed.

In the case of `OCC1OC(n2cnc3c(=S)nc[nH]c32)C(O)C1O` (configuration not stated), the T/C (endpoint: mean survival time, dose: 75.0 mg/kg/injection, schedule: Q01DX005 (ip), vehicle: saline) is 104 % of control; the T/C (endpoint: mean survival time, dose: 75.0 mg/kg/injection, schedule: Q01DX009 (ip), vehicle: saline) was 107 % of control; the T/C (endpoint: mean survival time, dose: 75.0 mg/kg/injection, schedule: Q01DX009 (oral), vehicle: saline) was 97 % of control; the T/C (endpoint: mean survival time, dose: 100.0 mg/kg/injection, schedule: Q01DX005 (ip), vehicle: saline) is 122 % of control; the T/C (endpoint: mean survival time, dose: 100.0 mg/kg/injection, schedule: Q01DX007 (ip), vehicle: Klucel (hydroxypropylcellulose) (HPC)) is 115 % of control; the T/C (endpoint: mean survival time, dose: 100.0 mg/kg/injection, schedule: Q01DX007 (ip), vehicle: saline) was 152 % of control. Besides, the T/C runs as follows: (endpoint: mean survival time, dose: 100.0 mg/kg/injection, schedule: Q01DX009 (ip), vehicle: Klucel (hydroxypropylcellulose) (HPC)) 118 % of control; (endpoint: mean survival time, dose: 100.0 mg/kg/injection, schedule: Q01DX009 (ip), vehicle: saline) 154 % of control; (endpoint: mean survival time, dose: 100.0 mg/kg/injection, schedule: Q03DX003 (ip), vehicle: Klucel (hydroxypropylcellulose) (HPC)) 95 % of control; (endpoint: mean survival time, dose: 100.0 mg/kg/injection, schedule: Q04DX003 (ip), vehicle: Klucel (hydroxypropylcellulose) (HPC)) 102 % of control; (endpoint: mean survival time, dose: 100.0 mg/kg/injection, schedule: Q04DX003 (ip), vehicle: saline) 113 % of control; (endpoint: mean survival time, dose: 112.0 mg/kg/injection, schedule: Q01DX010 (ip), vehicle: saline) 110 % of control. In addition, the T/C runs as follows: (endpoint: mean survival time, dose: 150.0 mg/kg/injection, schedule: Q01DX005 (ip), vehicle: saline) 107 % of control; (endpoint: mean survival time, dose: 150.0 mg/kg/injection, schedule: Q01DX009 (ip), vehicle: saline) 116 % of control; (endpoint: mean survival time, dose: 150.0 mg/kg/injection, schedule: Q01DX009 (oral), vehicle: saline) 98 % of control; (endpoint: mean survival time, dose: 200.0 mg/kg/injection, schedule: Q01DX007 (ip), vehicle: saline) 157 % of control; (endpoint: mean survival time, dose: 200.0 mg/kg/injection, schedule: Q01DX009 (ip), vehicle: saline) 179 % of control; (endpoint: mean survival time, dose: 200.0 mg/kg/injection, schedule: Q03DX003 (ip), vehicle: Klucel (hydroxypropylcellulose) (HPC)) 102 % of control. Further, the T/C runs as follows: (endpoint: mean survival time, dose: 200.0 mg/kg/injection, schedule: Q03DX003 (ip), vehicle: saline) 150 % of control; (endpoint: mean survival time, dose: 200.0 mg/kg/injection, schedule: Q04DX003 (ip), vehicle: Klucel (hydroxypropylcellulose) (HPC)) 100 % of control; (endpoint: mean survival time, dose: 200.0 mg/kg/injection, schedule: Q04DX003 (ip), vehicle: saline) 150 % of control; (endpoint: mean survival time, dose: 240.0 mg/kg/injection, schedule: Q01DX005 (ip), vehicle: saline) 164 % of control; (endpoint: mean survival time, dose: 300.0 mg/kg/injection, schedule: Q01DX002 (sc), vehicle: saline) 109 % of control; (endpoint: mean survival time, dose: 300.0 mg/kg/injection, schedule: Q01DX009 (oral), vehicle: saline) 105 % of control. Besides, the T/C (endpoint: mean survival time, dose: 300.0 mg/kg/injection, schedule: Q04DX003 (ip), vehicle: saline) was 108 % of control; the T/C (endpoint: mean survival time, dose: 400.0 mg/kg/injection, schedule: Q01DX007 (ip), vehicle: saline) is 104 % of control; the T/C (endpoint: mean survival time, dose: 400.0 mg/kg/injection, schedule: Q01DX009 (ip), vehicle: saline) is 116 % of control; the T/C (endpoint: mean survival time, dose: 400.0 mg/kg/injection, schedule: Q03DX003 (ip), vehicle: Klucel (hydroxypropylcellulose) (HPC)) was 111 % of control; the T/C (endpoint: mean survival time, dose: 400.0 mg/kg/injection, schedule: Q03DX003 (ip), vehicle: saline) was 154 % of control; the T/C (endpoint: mean survival time, dose: 400.0 mg/kg/injection, schedule: Q04DX003 (ip), vehicle: Klucel (hydroxypropylcellulose) (HPC)) is 111 % of control. Also, the T/C runs as follows: (endpoint: mean survival time, dose: 400.0 mg/kg/injection, schedule: Q04DX003 (ip), vehicle: saline) 175 % of control; (endpoint: mean survival time, dose: 480.0 mg/kg/injection, schedule: Q01DX005 (ip), vehicle: saline) 156 % of control; (endpoint: mean survival time, dose: 600.0 mg/kg/injection, schedule: Q01DX001 (ip), vehicle: saline) 97 % of control; (endpoint: mean survival time, dose: 600.0 mg/kg/injection, schedule: Q01DX002 (ip), vehicle: saline) 104 % of control; (endpoint: mean survival time, dose: 600.0 mg/kg/injection, schedule: Q01DX002 (sc), vehicle: saline) 116 % of control; (endpoint: mean survival time, dose: 600.0 mg/kg/injection, schedule: Q01DX009 (oral), vehicle: saline) 97 % of control. The T/C (endpoint: mean survival time, dose: 600.0 mg/kg/injection, schedule: Q03HX008 (ip), vehicle: saline) was 119 % of control; the T/C (endpoint: mean survival time, dose: 600.0 mg/kg/injection, schedule: Q03HX016 (ip), vehicle: saline) is 121 % of control; the T/C (endpoint: mean survival time, dose: 600.0 mg/kg/injection, schedule: Q04DX003 (ip), vehicle: saline) is 114 % of control; the T/C (endpoint: mean survival time, dose: 600.0 mg/kg/injection, schedule: Q08DX002 (ip), vehicle: saline) is 104 % of control; the T/C (endpoint: mean survival time, dose: 900.0 mg/kg/injection, schedule: Q01DX002 (ip), vehicle: saline) was 118 % of control; the T/C (endpoint: mean survival time, dose: 1200.0 mg/kg/injection, schedule: Q01DX001 (ip), vehicle: saline) is 97 % of control. Further, the T/C was 116 % of control (endpoint: mean survival time, dose: 1200.0 mg/kg/injection, schedule: Q01DX002 (ip), vehicle: saline); 113 % of control (endpoint: mean survival time, dose: 1200.0 mg/kg/injection, schedule: Q01DX009 (ip), vehicle: saline); 154 % of control (endpoint: mean survival time, dose: 1200.0 mg/kg/injection, schedule: Q03HX016 (ip), vehicle: saline); 155 % of control and 158 % of control (endpoint: mean survival time, dose: 1200.0 mg/kg/injection, schedule: Q03HX024 (ip), vehicle: saline); 115 % of control (endpoint: mean survival time, dose: 1200.0 mg/kg/injection, schedule: Q08DX002 (ip), vehicle: saline); 98 % of control (endpoint: mean survival time, dose: 2400.0 mg/kg/injection, schedule: Q01DX001 (ip), vehicle: saline). Also, the T/C is, setting by setting: (endpoint: mean survival time, dose: 2400.0 mg/kg/injection, schedule: Q03HX016 (ip), vehicle: saline) 156 % of control; (endpoint: median survival time, dose: 40.0 mg/kg/injection, schedule: Q01DX009 (ip), vehicle: saline) 114 % of control and 122 % of control; (endpoint: median survival time, dose: 160.0 mg/kg/injection, schedule: Q01DX009 (ip), vehicle: saline) 155 % of control and 185 % of control; (endpoint: median survival time, dose: 320.0 mg/kg/injection, schedule: Q01DX009 (ip), vehicle: saline) 185 % of control; (endpoint: median survival time, dose: 400.0 mg/kg/injection, schedule: Q01DX005 (ip), vehicle: water) 150 % of control.

Regarding `O=C(NCc1ccccc1)C1C2CCC(C2)C1C(=O)NCc1ccccc1` (configuration not stated), the T/C reads like this: under setting [1], 102 % of control; under setting [2], 102 % of control; under setting [3], 98 % of control.

For the molecule `C=C1CC2CCC1C2` (configuration not stated), the T/C was 96 % of control under setting [4], 104 % of control under setting [1], 98 % of control under setting [2] and 98 % of control under setting [3].

`c1ccc(-c2nc(/N=N/c3nc(-c4ccccc4)c(-c4ccccc4)[nH]3)[nH]c2-c2ccccc2)cc1`: the T/C (endpoint: mean survival time, dose: 100.0 mg/kg/injection, schedule: Q04DX002 (ip), vehicle: Klucel (hydroxypropylcellulose) (HPC)) is 96 % of control; the T/C (endpoint: mean survival time, dose: 200.0 mg/kg/injection, schedule: Q04DX002 (ip), vehicle: Klucel (hydroxypropylcellulose) (HPC)) is 96 % of control; the T/C (endpoint: mean survival time, dose: 400.0 mg/kg/injection, schedule: Q04DX002 (ip), vehicle: Klucel (hydroxypropylcellulose) (HPC)) was 100 % of control.

As to `CC(C)(C)c1cc(/C=N/NC(=O)CNC(=O)NCc2ccco2)cc(C(C)(C)C)c1O`, the T/C is 93 % of control (endpoint: mean survival time, dose: 50.0 mg/kg/injection, schedule: Q01DX009 (ip), vehicle: saline with Tween-80); 101 % of control under setting [4]; 104 % of control (endpoint: mean survival time, dose: 200.0 mg/kg/injection, schedule: Q01DX009 (ip), vehicle: saline with Tween-80).

Consider `COC(Cc1ccccc1)(c1ccccc1)c1ccccc1`, for which the T/C (endpoint: mean survival time, dose: 100.0 mg/kg/injection, schedule: Q04DX002 (ip), vehicle: saline with Tween-80) was 95 % of control; the T/C (endpoint: mean survival time, dose: 200.0 mg/kg/injection, schedule: Q04DX002 (ip), vehicle: saline with Tween-80) was 102 % of control; the T/C (endpoint: mean survival time, dose: 400.0 mg/kg/injection, schedule: Q04DX002 (ip), vehicle: saline with Tween-80) was 91 % of control.

Regarding `CCOC(=O)C(Br)(C(=O)OCC)C(c1ccccc1)c1ccccc1`, the T/C is, setting by setting: under setting [1], 98 % of control; under setting [2], 89 % of control; under setting [3], 93 % of control.

(Values after PubChem BioAssay AID256 (DTP/NCI, 2004).)
